This is an account of results in patent US20240343713A1, “TELOMERASE INHIBITOR COMPOUNDS” (Geron Corporation, priority 2023, published 2024).

The conditions of data set [1]: for deaths after first dose reduction: 25 mg/Kg (Compound 1, Compound 2) or 10 mg/Kg (Compound 3) PO on Day-10 and Day-12, deaths Day 11-13; for animals lost due to overdose early in the study: initial dosing 50 mg/Kg then 25 or 10 mg/Kg PO, 7 animals per group. As to the method:
7.1 Body Weight. The body weight data of NOD-SCID mice used for this study involving different treatment groups (Vehicle Control, 10 mg/Kg of the three treatment groups and 50 mg/Kg of the reference standard) was monitored every alternate day.

A further data set has as its system LUC-MOLM13 cell line. The conditions noted are these: for leukemia cell burden / tumor load by bioluminescence imaging (BLI), overall: male NOD-SCID mice, LUC-MOLM13 i.v., PO alternate days, test compounds finally 10 mg/Kg, BIBR-1532 50 mg/Kg, up to Day 28, vs vehicle control.

Molecules are shown by their SMILES.

Procedure for LUC-MOLM13 cell line: Screening of anticancer activity of compounds in an efficacy model using Luc-MOLM13 cell line
The efficacy study was conducted to assess the tumor regression of Compound 1, Compound 2, and Compound 3 shown below in male NOD-SCID mice using LUC-MOLM13 cell line. Individual animals were assigned identification markings on the ear.
Each mouse was intravenously injected with 1 million LUC-MOLM13 tumor cells in a total volume of 0.1 mL in DPBS and this would be considered as Day 0. Luciferin (150 mg/Kg body weight) was planned to be injected (JP) 5 mins before imaging and sequential 1-2 images of mice were planned every 1 minute. The animals were planned to be dosed with test compounds from Day 10 onwards by oral route at doses of 50 mg/Kg every alternate day.
The efficacy study was conducted to assess the inhibitory effect of Compound 1, Compound 3 and Compound 2 on leukemia cell expansion in male NOD-SCID mice using LUC-MOLM13 cell line.
1 million of LUC-MOLM13 cells/100 μL were suspended in DPBS and were inoculated per mouse via intravenous route in the lateral tail vein in NOD SCID male mice (Fed animals) of 6 to 8 weeks old after 7 days of acclimatization. This was considered as Day-0 of the study.
Luciferin (150 mg/Kg body weight) was injected (IP) 5 mins before imaging and sequential 1-2 images of mice were taken every 1 minute.
Bioluminescence imaging for tumor evaluation was done on Days 0, 5, 10, 15, 18, 21 and 28 respectively along with regular body weight monitoring. The following observations were monitored at regular intervals: body weight (% body weight loss), frequencies of leukemic cells (LUC-MOLM13) in hematopoietic organs and non-lymphoid tissues using imaging on an IVIS spectrum imager for tumor burden evaluation.
Other observations included any clinical signs/observations upon dosing. […] A range of tissues were collected including brain, axillary lymph node, eyes, branchial lymph node, lungs, heart, stomach, liver, kidney, spleen, cervical lymph node, mesenteric lymph node, inguinal lymph node, GI tract and male reproductive organ. Growth kinetics of Luc-MOLM13 cells was monitored based on BLI along with survival curve.
Initial plan was to dose from Day 10 onwards by oral route at doses of 50 mg/Kg every alternate day; however, we initiated the dosing from Day-8 onwards based on few reports [7, 8]. […] BIBR-1532 dosing was maintained at 50 mg/Kg every alternate day. […] Dosing was stopped for the next 4 days for all test compounds and BIBR-1532 considering the animal health condition. […]
The data for bioluminescence imaging levels (BLI (Avg Radiance) was captured from the instrument across the individual groups for the ROI (region of interest (ROI) and the average radiance was calculated to understand the levels as compared to vehicle control (Group 3).

As for `C/C(=C\C(=O)Nc1ccccc1C(=O)O)c1ccc2ccccc2c1` [BIBR-1532, reference compound], the overall animal health result in data set [1] (LUC-MOLM13 tumor-bearing NOD-SCID mice, test compounds 10 mg/Kg, BIBR-1532 50 mg/Kg PO) is “deteriorated”. In addition, the “bioluminescence (average radiance) on Day 21” value with LUC-MOLM13 cell line (Day 21, test compounds 10 mg/Kg, BIBR-1532 50 mg/Kg PO) is “signal was enhanced”. In addition, the “survival curve / deaths” value with LUC-MOLM13 cell line (after dose reduction, test compounds 10 mg/Kg, BIBR-1532 50 mg/Kg PO alternate days, until Day 34) was “one death on Day 31 and another on Day 34”. In the data set on LUC-MOLM13 cell line, the “leukemia cell burden / tumor load by bioluminescence imaging (BLI), overall” value is listed as “repressed as the days progressed”.

Take `C=C1CC(c2ccc(Cl)cc2-c2cn[nH]c2)OC1=O` (stereo not shown) [Compound 1]: in data set [1], the “deaths after first dose reduction” value is “one animal each on Day 12 and Day-13”; the “animals lost due to overdose early in the study” value is given as “two”.

On to `C=C1C(=O)OC(c2ccc(Cl)cc2-c2cnn(C)c2)C1O` (stereo not shown) [Compound 3], for which, in data set [1], the “deaths after first dose reduction” value worked out at 1 and the “animals lost due to overdose early in the study” value is recorded as “two”. For the same compound, the “loss of animals after the first dose” value in data set [1] (mouse, in vivo) is “one”. The “leukemia cell burden / tumor load by bioluminescence imaging (BLI), overall” value in the data set with LUC-MOLM13 cell line was “comparable impact on leukemia cell reduction to that of BIBR-1532, albeit at a lower dosage”.
